Results taken from ChEMBL document CHEMBL4387729, “Synthesis and structure-activity relationship of 4-alkoxy-thieno[2,3-b]pyridine derivatives as potent alkaline phosphatase enhancers for osteoporosis treatment” (Bioorg Med Chem Lett, 2019).
Values after ≈ are worked out from the molar mass of the structure shown. Active and inactive are the calls of the source. The rule behind the calls is not given here.

Experiments:
[1] = target: T1, Alkaline phosphatase, tissue-nonspecific isozyme (Mus musculus) (UniProt P09242); assay: Induction of alkaline phosphatase activity in mouse ST-2 cells after 4 days by spectrophotometric method; format: cell-based
T1 sequence (whole entry): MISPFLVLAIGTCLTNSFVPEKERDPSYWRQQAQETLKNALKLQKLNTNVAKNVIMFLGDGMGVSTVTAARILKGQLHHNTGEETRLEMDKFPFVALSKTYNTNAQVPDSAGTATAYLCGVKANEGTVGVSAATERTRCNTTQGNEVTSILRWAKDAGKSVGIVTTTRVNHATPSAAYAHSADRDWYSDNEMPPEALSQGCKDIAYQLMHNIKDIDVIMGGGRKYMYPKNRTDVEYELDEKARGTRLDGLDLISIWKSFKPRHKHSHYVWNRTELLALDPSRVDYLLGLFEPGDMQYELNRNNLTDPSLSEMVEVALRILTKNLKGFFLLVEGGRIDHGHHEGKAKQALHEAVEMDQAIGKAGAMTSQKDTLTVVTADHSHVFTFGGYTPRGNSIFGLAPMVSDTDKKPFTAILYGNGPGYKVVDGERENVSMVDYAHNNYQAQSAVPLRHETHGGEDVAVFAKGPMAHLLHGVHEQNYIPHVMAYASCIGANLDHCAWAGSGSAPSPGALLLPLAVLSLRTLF

CYP3A4 [2] = target: T2, CYP3A4 (Homo sapiens, UniProt P08684); assay: in vitro
[3] = Metabolic stability in rat liver microsomes assessed as parent compound remaining after 30 mins; format: ADME, Microsome; settings: read-out: Stability
CYP2D6 = CYP2D6 (Homo sapiens, UniProt P10635); assay: Inhibition of CYP2D6 (unknown origin) at 10 uM relative to control; format: ADME
CYP2C19 = CYP2C19 (Homo sapiens, UniProt P33261); assay: Inhibition of CYP2C19 (unknown origin) at 10 uM relative to control; format: ADME
CYP3A4 [4] = target: T2, CYP3A4; assay: in vitro; settings: human liver microsomes
Description: Time dependent inhibition of CYP3A4 in human liver microsomes assessed as enzyme residual activity at 100 uM relative to control

[5] = Cmax in F344 rat at 60 mg/kg, po; format: ADME, organism-based; parameters: dose 60 mg/kg, route oral; settings: in vivo
CYP1A2 = target: T3, CYP1A2 (Homo sapiens, UniProt P05177); assay: Inhibition of CYP1A2 (unknown origin) at 10 uM relative to control; format: ADME
T3 sequence (P05177 whole entry): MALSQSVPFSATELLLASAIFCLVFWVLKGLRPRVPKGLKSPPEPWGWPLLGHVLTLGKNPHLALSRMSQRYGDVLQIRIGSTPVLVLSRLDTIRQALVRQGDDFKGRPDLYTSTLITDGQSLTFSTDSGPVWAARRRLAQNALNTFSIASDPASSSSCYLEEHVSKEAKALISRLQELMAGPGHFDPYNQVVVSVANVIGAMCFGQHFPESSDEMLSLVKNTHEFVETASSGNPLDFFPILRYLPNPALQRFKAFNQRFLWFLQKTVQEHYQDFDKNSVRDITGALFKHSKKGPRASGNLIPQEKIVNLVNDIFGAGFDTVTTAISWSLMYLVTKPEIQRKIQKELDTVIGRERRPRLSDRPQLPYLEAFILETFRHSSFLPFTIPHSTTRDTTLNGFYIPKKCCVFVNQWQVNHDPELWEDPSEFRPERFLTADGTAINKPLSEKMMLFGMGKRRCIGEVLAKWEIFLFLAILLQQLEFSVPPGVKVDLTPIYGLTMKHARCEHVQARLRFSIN

[6] = Solubility of the compound in pH 6.8 JP2 solution; format: physicochemical
[7] = AUC (0 to 8 hrs) in F344 rat at 60 mg/kg, po; format: ADME, organism-based; parameters: time < 8 hr, dose 60 mg/kg, route oral; settings: in vivo
[8] = Metabolic stability in human liver microsomes assessed as parent compound remaining after 30 mins; format: ADME, Microsome; settings: read-out: Stability
CYP2C9 = CYP2C9 (Homo sapiens, UniProt P11712); assay: Inhibition of CYP2C9 (unknown origin) at 10 uM relative to control; format: ADME
Rattus norvegicus [9] = assay: Bone anabolic activity in ovariectomized F344 rat assessed as increase in areal bone mineral density in total femur at 30 mg/kg/day, po administered for 5 weeks measured post-last dose by dual energy X-ray absorptiometry; format: functional, organism-based
Rattus norvegicus [10] = assay: Bone anabolic activity in ovariectomized F344 rat assessed as increase in areal bone mineral density in proximal femur at 30 mg/kg/day, po administered for 5 weeks measured post-last dose by dual energy X-ray absorptiometry; format: functional, organism-based
Rattus norvegicus [11] = assay: Bone anabolic activity in ovariectomized F344 rat assessed as increase in areal bone mineral density in distal femur at 30 mg/kg/day, po administered for 5 weeks measured post-last dose by dual energy X-ray absorptiometry; format: functional, organism-based
[12] = Cmax in F344 rat at 30 mg/kg, po; format: ADME, organism-based; parameters: dose 30 mg/kg, route oral; settings: in vivo
[13] = AUC (0 to 8 hrs) in F344 rat at 30 mg/kg, po; format: ADME, organism-based; parameters: time < 8 hr, dose 30 mg/kg, route oral; settings: in vivo

T2 sequence (P08684 whole entry): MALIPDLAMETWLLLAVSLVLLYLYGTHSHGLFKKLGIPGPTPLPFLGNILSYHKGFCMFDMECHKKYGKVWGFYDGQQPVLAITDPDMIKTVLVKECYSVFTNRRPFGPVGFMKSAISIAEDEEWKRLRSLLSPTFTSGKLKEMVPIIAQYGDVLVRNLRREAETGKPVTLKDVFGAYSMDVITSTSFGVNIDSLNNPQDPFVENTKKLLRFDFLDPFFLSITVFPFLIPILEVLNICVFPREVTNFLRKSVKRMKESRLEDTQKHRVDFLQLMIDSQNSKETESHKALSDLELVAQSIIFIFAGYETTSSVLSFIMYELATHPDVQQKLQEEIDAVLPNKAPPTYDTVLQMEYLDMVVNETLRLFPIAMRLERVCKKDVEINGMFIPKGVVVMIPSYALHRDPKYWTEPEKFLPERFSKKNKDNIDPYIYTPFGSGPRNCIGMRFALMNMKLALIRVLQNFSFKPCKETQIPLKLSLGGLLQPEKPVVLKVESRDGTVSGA
CYP2C9, sequence (P11712 whole entry): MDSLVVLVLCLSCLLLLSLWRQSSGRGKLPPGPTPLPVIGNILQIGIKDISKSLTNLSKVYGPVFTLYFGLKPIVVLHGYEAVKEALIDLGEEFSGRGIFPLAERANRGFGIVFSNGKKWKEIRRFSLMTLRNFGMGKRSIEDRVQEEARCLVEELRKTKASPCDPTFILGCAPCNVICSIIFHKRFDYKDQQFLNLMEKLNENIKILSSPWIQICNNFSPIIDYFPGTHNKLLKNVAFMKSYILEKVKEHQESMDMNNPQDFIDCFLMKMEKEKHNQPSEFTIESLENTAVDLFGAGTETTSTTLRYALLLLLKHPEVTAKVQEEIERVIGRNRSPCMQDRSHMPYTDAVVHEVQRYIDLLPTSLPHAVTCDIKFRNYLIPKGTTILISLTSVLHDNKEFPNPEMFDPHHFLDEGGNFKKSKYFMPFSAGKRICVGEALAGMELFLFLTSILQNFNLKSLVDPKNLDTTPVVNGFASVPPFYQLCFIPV
CYP2C19, sequence (P33261 whole entry): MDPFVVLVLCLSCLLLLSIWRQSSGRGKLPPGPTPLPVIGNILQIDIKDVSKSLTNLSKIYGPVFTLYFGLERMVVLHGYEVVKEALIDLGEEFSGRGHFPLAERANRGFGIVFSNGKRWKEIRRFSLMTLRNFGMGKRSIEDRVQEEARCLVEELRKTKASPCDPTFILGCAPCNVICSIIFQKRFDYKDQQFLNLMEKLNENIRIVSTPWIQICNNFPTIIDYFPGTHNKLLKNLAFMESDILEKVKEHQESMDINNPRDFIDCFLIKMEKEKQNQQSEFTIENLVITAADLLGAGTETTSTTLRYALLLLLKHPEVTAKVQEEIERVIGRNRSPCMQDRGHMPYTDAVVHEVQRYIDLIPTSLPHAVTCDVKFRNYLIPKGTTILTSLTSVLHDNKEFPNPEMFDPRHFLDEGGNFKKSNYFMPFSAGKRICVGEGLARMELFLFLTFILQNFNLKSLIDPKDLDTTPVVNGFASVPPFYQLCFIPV
CYP2D6, sequence (P10635 whole entry): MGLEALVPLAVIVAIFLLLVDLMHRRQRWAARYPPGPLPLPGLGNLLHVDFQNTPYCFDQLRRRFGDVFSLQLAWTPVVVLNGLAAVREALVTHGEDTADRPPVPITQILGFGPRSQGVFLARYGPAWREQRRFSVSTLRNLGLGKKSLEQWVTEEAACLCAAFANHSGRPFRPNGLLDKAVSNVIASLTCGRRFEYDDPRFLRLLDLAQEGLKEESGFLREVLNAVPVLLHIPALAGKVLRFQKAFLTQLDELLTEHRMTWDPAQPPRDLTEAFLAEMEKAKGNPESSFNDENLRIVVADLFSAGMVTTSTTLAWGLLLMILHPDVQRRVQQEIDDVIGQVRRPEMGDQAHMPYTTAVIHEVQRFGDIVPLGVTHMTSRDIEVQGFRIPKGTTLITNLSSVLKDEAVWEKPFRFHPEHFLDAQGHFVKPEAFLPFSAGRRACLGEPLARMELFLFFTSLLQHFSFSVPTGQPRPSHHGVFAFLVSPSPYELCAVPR

C[C@H]1CC[C@@H](Oc2ccnc3sc(C(N)=O)c(N)c23)CC1
EC200 [1]: > 1 µg/mL

COC(=O)c1ccc(Oc2ccnc3sc(C(N)=O)c(N)c23)cc1
EC200 [1]: 0.09 µg/mL

CCc1ccc(Oc2ccnc3sc(C(N)=O)c(N)c23)cc1
EC200 [1]: 0.036 µg/mL

C[C@@H]1CCC[C@H](Oc2ccnc3sc(C(N)=O)c(N)c23)C1 (relative stereo)
EC200 [1]: > 1 µg/mL

Cc1cc(Oc2ccc(CCCC(=O)N(C)C)cc2)c2c(N)c(C(N)=O)sc2n1
EC200 [1]: 0.0011 µg/mL

NC(=O)c1sc2nccc(Oc3ccc(Cl)cc3Cl)c2c1N
EC200 [1]: 0.014 µg/mL

CC[C@H]1CC[C@H](Oc2ccnc3sc(C(N)=O)c(N)c23)CC1
EC200 [1]: > 0.3 µg/mL

NC(=O)c1sc2nccc(Oc3ccc(Cl)cc3)c2c1N
EC200 [1]: 0.021 µg/mL

NC(=O)c1sc2nccc(Oc3ccc(CCO)cc3)c2c1N
EC200 [1]: 0.025 µg/mL | inhibition at 10 µM (CYP3A4 [2]): 0% | remaining at 0.5 h [3]: 75% | inhibition at 10 µM (CYP2D6): 3% | inhibition at 10 µM (CYP2C19): 8% | activity at 100 µM (CYP3A4 [4]): 88% | Cmax [5]: 1540 ng/mL | inhibition at 10 µM (CYP1A2): 1% | solubility [6]: 39 µg/mL (≈ 118 µM) | AUC(0-t) at 8 h [7]: 3580 ng·h/mL | remaining at 0.5 h [8]: 93% | inhibition at 10 µM (CYP2C9): 7%

CN(C)C(=O)CCCc1ccc(Oc2ccnc3sc(C(N)=O)c(N)c23)cc1
EC200 [1]: 0.004 µg/mL

NC(=O)c1sc2nccc(N3CCCN(c4ccccc4)CC3)c2c1N
inhibition at 10 µM (CYP3A4 [2]): 49% | inhibition at 10 µM (CYP2D6): 34% | inhibition at 10 µM (CYP2C19): 96% | activity at 100 µM (CYP3A4 [4]): 28% | inhibition at 10 µM (CYP1A2): 14% | inhibition at 10 µM (CYP2C9): 71%

CN(C)C(=O)c1ccc(Oc2ccnc3sc(C(N)=O)c(N)c23)cc1
EC200 [1]: > 0.3 µg/mL

CCc1ccccc1Oc1ccnc2sc(C(N)=O)c(N)c12
EC200 [1]: 0.201 µg/mL

NC(=O)c1sc2nccc(Oc3ccccc3F)c2c1N
EC200 [1]: 0.022 µg/mL

CN(C)c1ccnc2sc(C(N)=O)c(N)c12
EC200 [1]: 0.17 µg/mL | inhibition at 10 µM (CYP3A4 [2]): 0% | inhibition at 10 µM (CYP2D6): 1% | inhibition at 10 µM (CYP2C19): 0% | inhibition at 10 µM (CYP1A2): 61% | inhibition at 10 µM (CYP2C9): 0%

C[C@H]1COCC[C@@H]1Oc1ccnc2sc(C(N)=O)c(N)c12
EC200 [1]: 0.27 µg/mL

COc1ccnc2sc(C(N)=O)c(N)c12
EC200 [1]: > 1 µg/mL

CN(C)CCc1ccc(Oc2ccnc3sc(C(N)=O)c(N)c23)cc1
EC200 [1]: 0.058 µg/mL

COc1ccc(Oc2ccnc3sc(C(N)=O)c(N)c23)c(Cl)c1
EC200 [1]: 0.008 µg/mL

NC(=O)c1sc2nccc(Oc3ccccc3)c2c1N
EC200 [1]: 0.046 µg/mL | inhibition at 10 µM (CYP3A4 [2]): 9% | remaining at 0.5 h [3]: 36% | inhibition at 10 µM (CYP2D6): 5% | inhibition at 10 µM (CYP2C19): 15% | activity at 100 µM (CYP3A4 [4]): 93% | inhibition at 10 µM (CYP1A2): 41% | solubility [6]: 6.6 µg/mL (≈ 23.1 µM) | remaining at 0.5 h [8]: 11% | inhibition at 10 µM (CYP2C9): 13%

C[C@H]1CCCC[C@@H]1Oc1ccnc2sc(C(N)=O)c(N)c12 (relative stereo)
EC200 [1]: 0.045 µg/mL | remaining at 0.5 h [3]: 7% | solubility [6]: 42 µg/mL (≈ 138 µM) | remaining at 0.5 h [8]: 20%

NC(=O)c1sc2nccc(SC3CCCCC3)c2c1N
EC200 [1]: > 1 µg/mL

N#Cc1ccc(Oc2ccnc3sc(C(N)=O)c(N)c23)cc1
EC200 [1]: 0.227 µg/mL

Cc1cc(Oc2ccc(CCCC(=O)N(C)C)cc2Cl)c2c(N)c(C(N)=O)sc2n1
EC200 [1]: 0.0004 µg/mL | inhibition at 10 µM (CYP3A4 [2]): 40% | remaining at 0.5 h [3]: 11% | inhibition at 10 µM (CYP2D6): 15% | inhibition at 10 µM (CYP2C19): 11% | activity at 100 µM (CYP3A4 [4]): 25% | inhibition at 10 µM (CYP1A2): 6% | solubility [6]: 0.2 µg/mL (≈ 0.447 µM) | remaining at 0.5 h [8]: 25% | inhibition at 10 µM (CYP2C9): 30%

COc1ccccc1Oc1ccnc2sc(C(N)=O)c(N)c12
EC200 [1]: 0.114 µg/mL

CC(C)Oc1ccnc2sc(C(N)=O)c(N)c12
EC200 [1]: 0.72 µg/mL

NC(=O)c1sc2nccc(OC3CCCCC3)c2c1N
EC200 [1]: 0.14 µg/mL | remaining at 0.5 h [3]: 2% | solubility [6]: 28 µg/mL (≈ 96.1 µM) | remaining at 0.5 h [8]: 1%

C[C@H]1CC[C@H](Oc2ccnc3sc(C(N)=O)c(N)c23)CC1
EC200 [1]: 0.037 µg/mL

NC(=O)c1sc2nccc(OC3CCOCC3)c2c1N
EC200 [1]: 0.25 µg/mL | inhibition at 10 µM (CYP3A4 [2]): 2% | Activity (Rattus norvegicus [9]): Active | Activity (Rattus norvegicus [10]): Active | remaining at 0.5 h [3]: 85% | inhibition at 10 µM (CYP2D6): 0% | inhibition at 10 µM (CYP2C19): 1% | activity at 100 µM (CYP3A4 [4]): 89% | Activity (Rattus norvegicus [11]): Active | Cmax [12]: 10400 ng/mL | AUC(0-t) at 8 h [13]: 29800 ng·h/mL | inhibition at 10 µM (CYP1A2): 11% | solubility [6]: 180 µg/mL (≈ 614 µM) | remaining at 0.5 h [8]: 92% | inhibition at 10 µM (CYP2C9): 1%

COc1ccc(Oc2ccnc3sc(C(N)=O)c(N)c23)cc1
EC200 [1]: 0.02 µg/mL

NC(=O)c1sc2nccc(Oc3ccccc3Cl)c2c1N
EC200 [1]: 0.008 µg/mL

Cc1cc(Oc2ccc(CCCC(=O)N(C)C)cc2F)c2c(N)c(C(N)=O)sc2n1
EC200 [1]: 0.0005 µg/mL | inhibition at 10 µM (CYP3A4 [2]): 20% | remaining at 0.5 h [3]: 12% | inhibition at 10 µM (CYP2D6): 10% | inhibition at 10 µM (CYP2C19): 10% | activity at 100 µM (CYP3A4 [4]): 47% | Cmax [5]: 96 ng/mL | inhibition at 10 µM (CYP1A2): 10% | solubility [6]: 0.3 µg/mL (≈ 0.697 µM) | AUC(0-t) at 8 h [7]: 591 ng·h/mL | remaining at 0.5 h [8]: 60% | inhibition at 10 µM (CYP2C9): 17%

CN(C)C(=O)CCc1ccc(Oc2ccnc3sc(C(N)=O)c(N)c23)cc1
EC200 [1]: 0.01 µg/mL

CN(C)C(=O)COc1ccc(Oc2ccnc3sc(C(N)=O)c(N)c23)cc1
EC200 [1]: 0.023 µg/mL

CC(C)c1ccc(Oc2ccnc3sc(C(N)=O)c(N)c23)cc1
EC200 [1]: > 0.3 µg/mL

CCOc1ccnc2sc(C(N)=O)c(N)c12
EC200 [1]: 0.27 µg/mL

NC(=O)c1sc2nccc(Oc3cccc(Cl)c3)c2c1N
EC200 [1]: 0.149 µg/mL

CN1CCC(Oc2ccnc3sc(C(N)=O)c(N)c23)CC1
EC200 [1]: > 1 µg/mL
